ChEMBL document CHEMBL4152218, “Novel hydrazide-hydrazone and amide substituted coumarin derivatives: Synthesis, cytotoxicity screening, microarray, radiolabeling and in vivo pharmacokinetic studies” (Eur J Med Chem, 2018)

Tested on: PANC-1
Assay: Antiproliferative activity against human PANC1 cells after 48 hrs by resazurin dye-based fluorescence assay
Assay type: functional, cell-based
Conditions: PANC-1, 48 h

| Structure (SMILES) | IC50 |
| --- | --- |
| O=C(N/N=C/c1ccncc1)c1cc2cc(Br)ccc2oc1=O | 25.7 µM |
| Cc1noc(NS(=O)(=O)c2ccc(NC(=O)c3cc4cc([N+](=O)[O-])ccc4oc3=O)cc2)c1C | 11.9 µM |
| O=C(N/N=C/c1ccncc1)c1cc2cc([N+](=O)[O-])ccc2oc1=O | 26.1 µM |
| O=C(N/N=C/c1ccncc1)c1cc2ccccc2oc1=O | 9.75 µM |

Tested on: HepG2
Assay: Antiproliferative activity against human HepG2 cells after 48 hrs by resazurin dye-based fluorescence assay
Assay type: functional, cell-based
Conditions: HepG2, 48 h

| Structure (SMILES) | IC50 |
| --- | --- |
| O=C(N/N=C/c1ccncc1)c1cc2cc(Br)ccc2oc1=O | 4.89 µM |
| Cc1noc(NS(=O)(=O)c2ccc(NC(=O)c3cc4cc([N+](=O)[O-])ccc4oc3=O)cc2)c1C | 15 µM |
| O=C(N/N=C/c1ccncc1)c1cc2cc([N+](=O)[O-])ccc2oc1=O | 15.8 µM |
| O=C(N/N=C/c1ccncc1)c1cc2ccccc2oc1=O | 17.2 µM |

Tested on: CCRF-CEM
Assay: Antiproliferative activity against human CCRF-CEM cells after 48 hrs by resazurin dye-based fluorescence assay
Assay type: functional, cell-based
Conditions: not given

| Structure (SMILES) | IC50 |
| --- | --- |
| O=C(N/N=C/c1ccncc1)c1cc2cc(Br)ccc2oc1=O | 6.34 µM |
| Cc1noc(NS(=O)(=O)c2ccc(NC(=O)c3cc4cc([N+](=O)[O-])ccc4oc3=O)cc2)c1C | 14.3 µM |
| O=C(N/N=C/c1ccncc1)c1cc2cc([N+](=O)[O-])ccc2oc1=O | 13 µM |
| O=C(N/N=C/c1ccncc1)c1cc2ccccc2oc1=O | 3.11 µM |

Tested on: hTERT-BJ
Assay: Cytotoxicity against hTERT-BJ cells after 48 hrs by resazurin dye-based fluorescence assay
Assay type: cell-based
Conditions: Homo sapiens

| Structure (SMILES) | IC50 |
| --- | --- |
| O=C(N/N=C/c1ccncc1)c1cc2cc(Br)ccc2oc1=O | > 50 µM |
| Cc1noc(NS(=O)(=O)c2ccc(NC(=O)c3cc4cc([N+](=O)[O-])ccc4oc3=O)cc2)c1C | > 50 µM |
| O=C(N/N=C/c1ccncc1)c1cc2cc([N+](=O)[O-])ccc2oc1=O | > 50 µM |
| O=C(N/N=C/c1ccncc1)c1cc2ccccc2oc1=O | > 50 µM |

Tested on: not listed separately
Assay: Selectivity index, ratio of IC50 for hTERT-RPE1 cells to IC50 for human PANC1 cells
Assay type: toxicity
Conditions: hTERT-RPE1 cells versus PANC1 cells, read-out: Ratio IC50

| Structure (SMILES) | selectivity ratio |
| --- | --- |
| O=C(N/N=C/c1ccncc1)c1cc2cc(Br)ccc2oc1=O | > 1.94 |
| Cc1noc(NS(=O)(=O)c2ccc(NC(=O)c3cc4cc([N+](=O)[O-])ccc4oc3=O)cc2)c1C | > 4.19 |
| O=C(N/N=C/c1ccncc1)c1cc2cc([N+](=O)[O-])ccc2oc1=O | > 1.92 |
| O=C(N/N=C/c1ccncc1)c1cc2ccccc2oc1=O | > 5.13 |

Tested on: not listed separately
Assay: Selectivity index, ratio of IC50 for hTERT-BJ cells to IC50 for human PANC1 cells
Assay type: toxicity
Conditions: hTERT-BJ cells versus PANC1 cells, read-out: Ratio IC50

| Structure (SMILES) | selectivity ratio |
| --- | --- |
| O=C(N/N=C/c1ccncc1)c1cc2cc(Br)ccc2oc1=O | > 1.94 |
| Cc1noc(NS(=O)(=O)c2ccc(NC(=O)c3cc4cc([N+](=O)[O-])ccc4oc3=O)cc2)c1C | > 4.19 |
| O=C(N/N=C/c1ccncc1)c1cc2cc([N+](=O)[O-])ccc2oc1=O | > 1.92 |
| O=C(N/N=C/c1ccncc1)c1cc2ccccc2oc1=O | > 5.13 |

Tested on: not listed separately
Assay: Selectivity index, ratio of IC50 for hTERT-RPE1 cells to IC50 for human HepG2 cells
Assay type: toxicity
Conditions: hTERT-RPE1 cells versus HepG2 cells, read-out: Ratio IC50

| Structure (SMILES) | selectivity ratio |
| --- | --- |
| O=C(N/N=C/c1ccncc1)c1cc2cc(Br)ccc2oc1=O | > 10.2 |
| Cc1noc(NS(=O)(=O)c2ccc(NC(=O)c3cc4cc([N+](=O)[O-])ccc4oc3=O)cc2)c1C | > 3.34 |
| O=C(N/N=C/c1ccncc1)c1cc2cc([N+](=O)[O-])ccc2oc1=O | > 3.15 |
| O=C(N/N=C/c1ccncc1)c1cc2ccccc2oc1=O | > 2.91 |

Tested on: not listed separately
Assay: Selectivity index, ratio of IC50 for hTERT-BJ cells to IC50 for human HepG2 cells
Assay type: toxicity
Conditions: hTERT-BJ cells versus HepG2 cells, read-out: Ratio IC50

| Structure (SMILES) | selectivity ratio |
| --- | --- |
| O=C(N/N=C/c1ccncc1)c1cc2cc(Br)ccc2oc1=O | > 10.2 |
| Cc1noc(NS(=O)(=O)c2ccc(NC(=O)c3cc4cc([N+](=O)[O-])ccc4oc3=O)cc2)c1C | > 3.34 |
| O=C(N/N=C/c1ccncc1)c1cc2cc([N+](=O)[O-])ccc2oc1=O | > 3.15 |
| O=C(N/N=C/c1ccncc1)c1cc2ccccc2oc1=O | > 2.91 |

Tested on: not listed separately
Assay: Selectivity index, ratio of IC50 for hTERT-RPE1 cells to IC50 for human CCRF-CEM cells
Assay type: toxicity
Conditions: hTERT-RPE1 cells versus CCRF-CEM cells, read-out: Ratio IC50

| Structure (SMILES) | selectivity ratio |
| --- | --- |
| O=C(N/N=C/c1ccncc1)c1cc2cc(Br)ccc2oc1=O | > 7.88 |
| Cc1noc(NS(=O)(=O)c2ccc(NC(=O)c3cc4cc([N+](=O)[O-])ccc4oc3=O)cc2)c1C | > 3.49 |
| O=C(N/N=C/c1ccncc1)c1cc2cc([N+](=O)[O-])ccc2oc1=O | > 3.86 |
| O=C(N/N=C/c1ccncc1)c1cc2ccccc2oc1=O | > 16.1 |

Tested on: not listed separately
Assay: Selectivity index, ratio of IC50 for hTERT-BJ cells to IC50 for human CCRF-CEM cells
Assay type: toxicity
Conditions: hTERT-BJ cells versus CCRF-CEM cells, read-out: Ratio IC50

| Structure (SMILES) | selectivity ratio |
| --- | --- |
| O=C(N/N=C/c1ccncc1)c1cc2cc(Br)ccc2oc1=O | > 7.88 |
| Cc1noc(NS(=O)(=O)c2ccc(NC(=O)c3cc4cc([N+](=O)[O-])ccc4oc3=O)cc2)c1C | > 3.49 |
| O=C(N/N=C/c1ccncc1)c1cc2cc([N+](=O)[O-])ccc2oc1=O | > 3.86 |
| O=C(N/N=C/c1ccncc1)c1cc2ccccc2oc1=O | > 16.1 |

Tested on: HepG2
Assay: Induction of apoptosis in human HepG2 cells assessed as increase in caspase-3/7 activity after 24 hrs by Caspase-Glo 3/7 luminescence assay
Assay type: functional, cell-based
Conditions: not given

| Structure (SMILES) | Activity |
| --- | --- |
| O=C(N/N=C/c1ccncc1)c1cc2cc(Br)ccc2oc1=O | Dose-dependent effect |

Tested on: PANC-1
Assay: Induction of apoptosis in human PANC1 cells assessed as increase in caspase-3/7 activity after 24 hrs by Caspase-Glo 3/7 luminescence assay
Assay type: functional, cell-based
Conditions: not given

| Structure (SMILES) | Activity |
| --- | --- |
| O=C(N/N=C/c1ccncc1)c1cc2cc(Br)ccc2oc1=O | Dose-dependent effect |

Tested on: TERT-RPE1
Assay: Cytotoxicity against hTERT-RPE1 cells after 48 hrs by resazurin dye-based fluorescence assay
Assay type: cell-based
Conditions: Homo sapiens, RPE-1, 48 h

| Structure (SMILES) | IC50 |
| --- | --- |
| O=C(N/N=C/c1ccncc1)c1cc2cc(Br)ccc2oc1=O | > 50 µM |
| Cc1noc(NS(=O)(=O)c2ccc(NC(=O)c3cc4cc([N+](=O)[O-])ccc4oc3=O)cc2)c1C | > 50 µM |
| O=C(N/N=C/c1ccncc1)c1cc2cc([N+](=O)[O-])ccc2oc1=O | > 50 µM |
| O=C(N/N=C/c1ccncc1)c1cc2ccccc2oc1=O | > 50 µM |

Tested on: hTERT-BJ
Assay: Cytotoxicity against hTERT-BJ cells at 6.25 uM after 48 hrs by resazurin dye-based fluorescence assay relative to control
Assay type: cell-based
Conditions: human

| Structure (SMILES) | Activity |
| --- | --- |
| O=C(N/N=C/c1ccncc1)c1cc2cc(Br)ccc2oc1=O | 0.6% |
| Cc1noc(NS(=O)(=O)c2ccc(NC(=O)c3cc4cc([N+](=O)[O-])ccc4oc3=O)cc2)c1C | 2.53% |
| O=C(N/N=C/c1ccncc1)c1cc2cc([N+](=O)[O-])ccc2oc1=O | 0.78% |
| O=C(N/N=C/c1ccncc1)c1cc2ccccc2oc1=O | 0.6% |

Tested on: hTERT-BJ
Assay: Cytotoxicity against hTERT-BJ cells at 12.50 uM after 48 hrs by resazurin dye-based fluorescence assay relative to control
Assay type: cell-based
Conditions: human, 12.5 µM

| Structure (SMILES) | Activity |
| --- | --- |
| O=C(N/N=C/c1ccncc1)c1cc2cc(Br)ccc2oc1=O | 0.2% |
| Cc1noc(NS(=O)(=O)c2ccc(NC(=O)c3cc4cc([N+](=O)[O-])ccc4oc3=O)cc2)c1C | 4.43% |
| O=C(N/N=C/c1ccncc1)c1cc2cc([N+](=O)[O-])ccc2oc1=O | 5.5% |
| O=C(N/N=C/c1ccncc1)c1cc2ccccc2oc1=O | 1.23% |

Tested on: hTERT-BJ
Assay: Cytotoxicity against hTERT-BJ cells at 25 uM after 48 hrs by resazurin dye-based fluorescence assay relative to control
Assay type: cell-based
Conditions: human

| Structure (SMILES) | Activity |
| --- | --- |
| O=C(N/N=C/c1ccncc1)c1cc2cc(Br)ccc2oc1=O | 1.37% |
| Cc1noc(NS(=O)(=O)c2ccc(NC(=O)c3cc4cc([N+](=O)[O-])ccc4oc3=O)cc2)c1C | 7.18% |
| O=C(N/N=C/c1ccncc1)c1cc2cc([N+](=O)[O-])ccc2oc1=O | 6.48% |
| O=C(N/N=C/c1ccncc1)c1cc2ccccc2oc1=O | 3.9% |

Tested on: hTERT-BJ
Assay: Cytotoxicity against hTERT-BJ cells at 50 uM after 48 hrs by resazurin dye-based fluorescence assay relative to control
Assay type: cell-based
Conditions: human

| Structure (SMILES) | Activity |
| --- | --- |
| O=C(N/N=C/c1ccncc1)c1cc2cc(Br)ccc2oc1=O | 2.52% |
| Cc1noc(NS(=O)(=O)c2ccc(NC(=O)c3cc4cc([N+](=O)[O-])ccc4oc3=O)cc2)c1C | 10.27% |
| O=C(N/N=C/c1ccncc1)c1cc2cc([N+](=O)[O-])ccc2oc1=O | 7.55% |
| O=C(N/N=C/c1ccncc1)c1cc2ccccc2oc1=O | 1.73% |

Tested on: TERT-RPE1
Assay: Cytotoxicity against hTERT-RPE1 cells at 6.25 uM after 48 hrs by resazurin dye-based fluorescence assay relative to control
Assay type: cell-based
Conditions: human, tert-rpe1, 48 h

| Structure (SMILES) | Activity |
| --- | --- |
| O=C(N/N=C/c1ccncc1)c1cc2cc(Br)ccc2oc1=O | 9.63% |
| Cc1noc(NS(=O)(=O)c2ccc(NC(=O)c3cc4cc([N+](=O)[O-])ccc4oc3=O)cc2)c1C | 1.27% |
| O=C(N/N=C/c1ccncc1)c1cc2cc([N+](=O)[O-])ccc2oc1=O | 6.97% |
| O=C(N/N=C/c1ccncc1)c1cc2ccccc2oc1=O | 0.65% |

Tested on: TERT-RPE1
Assay: Cytotoxicity against hTERT-RPE1 cells at 12.50 uM after 48 hrs by resazurin dye-based fluorescence assay relative to control
Assay type: cell-based
Conditions: human, tert-rpe1, 48 h, 12.5 µM

| Structure (SMILES) | Activity |
| --- | --- |
| O=C(N/N=C/c1ccncc1)c1cc2cc(Br)ccc2oc1=O | 17.16% |
| Cc1noc(NS(=O)(=O)c2ccc(NC(=O)c3cc4cc([N+](=O)[O-])ccc4oc3=O)cc2)c1C | 2.5% |
| O=C(N/N=C/c1ccncc1)c1cc2cc([N+](=O)[O-])ccc2oc1=O | 10.1% |
| O=C(N/N=C/c1ccncc1)c1cc2ccccc2oc1=O | 4.08% |

Tested on: TERT-RPE1
Assay: Cytotoxicity against hTERT-RPE1 cells at 25 uM after 48 hrs by resazurin dye-based fluorescence assay relative to control
Assay type: cell-based
Conditions: human, tert-rpe1, 48 h

| Structure (SMILES) | Activity |
| --- | --- |
| O=C(N/N=C/c1ccncc1)c1cc2cc(Br)ccc2oc1=O | 34.5% |
| Cc1noc(NS(=O)(=O)c2ccc(NC(=O)c3cc4cc([N+](=O)[O-])ccc4oc3=O)cc2)c1C | 4.79% |
| O=C(N/N=C/c1ccncc1)c1cc2cc([N+](=O)[O-])ccc2oc1=O | 11.23% |
| O=C(N/N=C/c1ccncc1)c1cc2ccccc2oc1=O | 12.2% |

Tested on: TERT-RPE1
Assay: Cytotoxicity against hTERT-RPE1 cells at 50 uM after 48 hrs by resazurin dye-based fluorescence assay relative to control
Assay type: cell-based
Conditions: human, tert-rpe1, 48 h

| Structure (SMILES) | Activity |
| --- | --- |
| O=C(N/N=C/c1ccncc1)c1cc2cc(Br)ccc2oc1=O | 39.96% |
| Cc1noc(NS(=O)(=O)c2ccc(NC(=O)c3cc4cc([N+](=O)[O-])ccc4oc3=O)cc2)c1C | 4.06% |
| O=C(N/N=C/c1ccncc1)c1cc2cc([N+](=O)[O-])ccc2oc1=O | 13.97% |
| O=C(N/N=C/c1ccncc1)c1cc2ccccc2oc1=O | 13.73% |
